The source of these data is patent publication US10941157B2, “Pesticidal compositions and uses thereof” (Gilead Apollo, LLC, priority 2015, dated 2021).

Values after ≈ are worked out from the molar mass of the structure shown.

What all share (type): cell-based
The subject of one test is Diplodia maydis (Dm). Nature of the test: In vitro pathogen growth inhibition assay, Dm. As to conditions: Stenocarpella maydis, 48 h, ≥90% inhibition; 48 hours vs 2% DMSO control; read-out: Compound Concentration (ppm) sufficient for ≥90% inhibition of growth, Dm. In short, it runs like this: (§1)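 Value reported is the compound concentration reaching ≥90% growth inhibition, from OD readings at 24 and 48 h after blank subtraction, confirmed visually. Inoculum was spores diluted in 17% V8 medium, except Rs, using 1.5 mm mycelial plugs in ¼ PDB; actual compound concentration corrected via OD600.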

Test [1] relates to Fusarium moniliforme (Fm). Description: In vitro pathogen growth inhibition assay, Fm. As to conditions: Fusarium verticillioides; ≥90% inhibition; 48 hours vs 2% DMSO control; read-out: Compound Concentration (ppm) sufficient for ≥90% inhibition of growth, Fm. In outline:
as §1

The test system of a further test is Septoria tritici (St). Nature of the test: In vitro pathogen growth inhibition assay, St. As to conditions: Zymoseptoria tritici, 48 h, ≥90% inhibition; 48 hours vs 2% DMSO control; read-out: Compound Concentration (ppm) sufficient for ≥90% inhibition of growth, St. In outline:
as §1

Test [2] deals with Fusarium virguliforme (Fv). Nature of the test: In vitro pathogen growth inhibition assay, Fv. As to conditions: ≥90% inhibition, 48 hours vs 2% DMSO control, read-out: Compound Concentration (ppm) sufficient for ≥90% inhibition of growth, Fv. In short, it runs like this:
as §1

Test [3] relates to Collectotrichum graminicola (Cg). Nature of the test: In vitro pathogen growth inhibition assay, Cg. As to conditions: 48 h, ≥90% inhibition; 48 hours vs 2% DMSO control; read-out: Compound Concentration (ppm) sufficient for ≥90% inhibition of growth, Cg. In short, it runs like this:
as §1

In another test the test system is Botrtyis cinerea (Bc). Nature of the test: In vitro pathogen growth inhibition assay, Bc. As to conditions: 48 h, ≥90% inhibition; 48 hours vs 2% DMSO control; read-out: Compound Concentration (ppm) sufficient for ≥90% inhibition of growth, Bc. In outline: as §1
Test [4] concerns Phytophthora capsici (Pc). Nature of the test: In vitro pathogen growth inhibition assay, Pc. As to conditions: 48 h, ≥90% inhibition, 48 hours vs 2% DMSO control, read-out: Compound Concentration (ppm) sufficient for ≥90% inhibition of growth, Pc. In short, it runs like this:
as §1

The next test concerns Rhizoctonia solani (Rs). Description: In vitro pathogen growth inhibition assay, Rs (mycelial plugs). As to conditions: Rhizoctonia solani, 48 h, ≥90% inhibition; mycelial plugs; 48 hours vs 2% DMSO control; read-out: Compound Concentration (ppm) sufficient for ≥90% inhibition of growth, Rs. In outline: as §1

For `C=CCN(C)C(=O)C(C)(C)n1c(=O)c2c(C)c(-n3nccn3)sc2n(C[C@H](OC2CCOCC2)c2cc(F)ccc2OC)c1=O` [Compound I-080], the IC90 in the test on Diplodia maydis (Dm) was 0.4 µg/mL (≈ 0.624 µM); in test [1] it was 0.08 µg/mL (≈ 0.125 µM); with Septoria tritici (St), more than 50 µg/mL; in test [2], 2 µg/mL (≈ 3.12 µM); in test [3], 0.08 µg/mL (≈ 0.125 µM); with Botrtyis cinerea (Bc) it was 0.4 µg/mL (≈ 0.624 µM). In addition, the IC90 in test [4] was more than 50 µg/mL; with Rhizoctonia solani (Rs) it was 0.08 µg/mL (≈ 0.125 µM).

For `COc1ccc(F)cc1[C@H](Cn1c(=O)n(C(C)(C)C(=O)N2CC=CC2)c(=O)c2c(C)c(-n3nccn3)sc21)OC[C@@H](C)O` [Compound I-081], the IC90 in the test on Diplodia maydis (Dm) was 2 µg/mL (≈ 3.26 µM); in test [1], 0.08 µg/mL (≈ 0.131 µM); in the test with Septoria tritici (St), more than 50 µg/mL; in test [2], 0.4 µg/mL (≈ 0.653 µM); in test [3], 0.4 µg/mL (≈ 0.653 µM); in the test on Botrtyis cinerea (Bc), 2 µg/mL (≈ 3.26 µM). Besides, the IC90 is not below 50 µg/mL in test [4] and 0.4 µg/mL (≈ 0.653 µM) in the test on Rhizoctonia solani (Rs).

For `COCCCO[C@@H](Cn1c(=O)n(C(C)(C)C(=O)N2CCCC2)c(=O)c2c(C)c(-n3nccn3)sc21)c1cc(F)ccc1OC` [Compound I-083], the IC90 in the test on Diplodia maydis (Dm) is 2 µg/mL (≈ 3.18 µM); in test [1] it was 0.08 µg/mL (≈ 0.127 µM); in the test with Septoria tritici (St), not below 50 µg/mL; in test [2], 0.4 µg/mL (≈ 0.636 µM); in test [3], 2 µg/mL (≈ 3.18 µM); in the test on Botrtyis cinerea (Bc) it was 2 µg/mL (≈ 3.18 µM). The IC90 was more than 50 µg/mL in test [4] and 0.4 µg/mL (≈ 0.636 µM) with Rhizoctonia solani (Rs).

Consider `CCOC(=O)C(C)(C)n1c(=O)c2c(C)c(-n3nccn3)sc2n(C[C@H](OCCO)c2cc(F)ccc2OC)c1=O` [Compound I-085], for which the IC90 is 0.4 µg/mL (≈ 0.695 µM) in the test with Diplodia maydis (Dm); 0.08 µg/mL (≈ 0.139 µM) in test [1]; not below 10 µg/mL with Septoria tritici (St); 0.4 µg/mL (≈ 0.695 µM) in test [2]; 0.4 µg/mL (≈ 0.695 µM) in test [3]; more than 0.08 µg/mL in the test with Botrtyis cinerea (Bc). The IC90 is more than 50 µg/mL in test [4] and 0.08 µg/mL (≈ 0.139 µM) in the test with Rhizoctonia solani (Rs).

For `COCCO[C@@H](Cn1c(=O)n(CC(=O)NC(C)C)c(=O)c2c(C)c(-n3nccn3)sc21)c1cc(F)ccc1OC` [Compound I-086], the IC90 in the test on Diplodia maydis (Dm) was more than 50 µg/mL; in test [1], 0.08 µg/mL (≈ 0.139 µM); in the test with Septoria tritici (St), more than 50 µg/mL; in test [2] it was not below 2 µg/mL; in test [3] it was more than 50 µg/mL; with Botrtyis cinerea (Bc), more than 50 µg/mL. For the same molecule, the values for the IC90 (in test [4]; in the test with Rhizoctonia solani (Rs)) were more than 50 µg/mL and 10 µg/mL (≈ 17.4 µM), respectively.

In the case of `COc1ccc(F)cc1[C@H](Cn1c(=O)n(CC(=O)NC(C)C)c(=O)c2c(C)c(-n3nccn3)sc21)OCCO` [Compound I-087], the IC90 was more than 50 µg/mL in the test with Diplodia maydis (Dm); 0.08 µg/mL (≈ 0.143 µM) in test [1]; more than 50 µg/mL with Septoria tritici (St); 2 µg/mL (≈ 3.57 µM) in test [2]; 2 µg/mL (≈ 3.57 µM) in test [3]; 2 µg/mL (≈ 3.57 µM) with Botrtyis cinerea (Bc). Further, the IC90 in test [4] is more than 50 µg/mL; in the test with Rhizoctonia solani (Rs) it was 2 µg/mL (≈ 3.57 µM).

Consider `COc1ccc(F)cc1[C@H](Cn1c(=O)n(CC(=O)N2CCCC2)c(=O)c2c(C)c(-n3nccn3)sc21)OCCO` [Compound I-088], for which the IC90 was 2 µg/mL (≈ 3.49 µM) in the test on Diplodia maydis (Dm); 0.08 µg/mL (≈ 0.14 µM) in test [1]; more than 50 µg/mL in the test on Septoria tritici (St); 0.4 µg/mL (≈ 0.699 µM) in test [2]; 2 µg/mL (≈ 3.49 µM) in test [3]; 0.08 µg/mL (≈ 0.14 µM) with Botrtyis cinerea (Bc). Moreover, the IC90 in test [4] was more than 50 µg/mL; with Rhizoctonia solani (Rs) it was 0.08 µg/mL (≈ 0.14 µM).

With `COc1ccc(F)cc1[C@H](Cn1c(=O)n([C@@H](C)C(=O)NC2CCC2)c(=O)c2c(C)c(-n3nccn3)sc21)OCCO` [Compound I-091], the IC90 was 2 µg/mL (≈ 3.41 µM) with Diplodia maydis (Dm); 0.08 µg/mL (≈ 0.136 µM) in test [1]; more than 50 µg/mL in the test on Septoria tritici (St); 0.4 µg/mL (≈ 0.682 µM) in test [2]; not below 2 µg/mL in test [3]; 0.4 µg/mL (≈ 0.682 µM) with Botrtyis cinerea (Bc). The IC90 in test [4] is more than 50 µg/mL; in the test with Rhizoctonia solani (Rs), 2 µg/mL (≈ 3.41 µM).

With `COCCCO[C@@H](Cn1c(=O)n([C@@H](C)C(=O)NC(C)C)c(=O)c2c(C)c(-n3nccn3)sc21)c1cc(F)ccc1OC` [Compound I-093], the IC90 with Diplodia maydis (Dm) is 2 µg/mL (≈ 3.32 µM); in test [1] it was 0.08 µg/mL (≈ 0.133 µM); with Septoria tritici (St), more than 50 µg/mL; in test [2], 10 µg/mL (≈ 16.6 µM); in test [3], 10 µg/mL (≈ 16.6 µM); in the test on Botrtyis cinerea (Bc), 0.4 µg/mL (≈ 0.664 µM). Moreover, the IC90 in test [4] is more than 50 µg/mL; in the test with Rhizoctonia solani (Rs) it was 2 µg/mL (≈ 3.32 µM).

As to `COc1ccc(F)cc1[C@H](Cn1c(=O)n([C@H](C)C(=O)NC(C)C)c(=O)c2c(C)c(-n3nccn3)sc21)OCCO` [Compound I-097], the IC90 with Diplodia maydis (Dm) is not below 2 µg/mL; in test [1], 0.08 µg/mL (≈ 0.139 µM); in the test on Septoria tritici (St), more than 50 µg/mL; in test [2] it was 2 µg/mL (≈ 3.48 µM); in test [3] it was 50 µg/mL (≈ 87 µM); with Botrtyis cinerea (Bc), 0.4 µg/mL (≈ 0.696 µM). Moreover, the IC90 in test [4] was more than 50 µg/mL; in the test with Rhizoctonia solani (Rs), 2 µg/mL (≈ 3.48 µM).

Take `COc1ccc(F)cc1[C@H](Cn1c(=O)n(C(C)(C)C(N)=O)c(=O)c2c(C)c(-n3nccn3)sc21)OC(C)C` [Compound I-113]: the IC90 in the test with Diplodia maydis (Dm) is 2 µg/mL (≈ 3.67 µM); in test [1], 0.4 µg/mL (≈ 0.734 µM); in the test with Septoria tritici (St) it was 50 µg/mL (≈ 91.8 µM); in test [2], 0.4 µg/mL (≈ 0.734 µM); in test [3] it was 2 µg/mL (≈ 3.67 µM); in the test with Botrtyis cinerea (Bc), 2 µg/mL (≈ 3.67 µM). In addition, the IC90 in test [4] is more than 50 µg/mL; with Rhizoctonia solani (Rs), 0.08 µg/mL (≈ 0.147 µM).

For `COc1ccc(F)cc1[C@H](Cn1c(=O)n(C(C)(C)C(=O)N2CC(O)C2)c(=O)c2c(C)c(-n3nccn3)sc21)OC1CCOCC1` [Compound I-114], the IC90 with Diplodia maydis (Dm) is 10 µg/mL (≈ 15.6 µM); in test [1], 0.4 µg/mL (≈ 0.622 µM); in the test with Septoria tritici (St), more than 50 µg/mL; in test [2], 2 µg/mL (≈ 3.11 µM); in test [3], 10 µg/mL (≈ 15.6 µM); in the test on Botrtyis cinerea (Bc) it was 2 µg/mL (≈ 3.11 µM). Besides, the IC90 is more than 50 µg/mL in test [4] and 10 µg/mL (≈ 15.6 µM) in the test on Rhizoctonia solani (Rs).

For the molecule `COc1ccc(F)cc1[C@H](Cn1c(=O)n(C(C)(C)C(=O)NC(C)C)c(=O)c2c(C)c(-n3cccn3)sc21)OC1CCOCC1` [Compound I-115], the IC90 in the test with Diplodia maydis (Dm) is not below 2 µg/mL; in test [1] it was 0.4 µg/mL (≈ 0.637 µM); with Septoria tritici (St), not below 50 µg/mL; in test [2] it was 2 µg/mL (≈ 3.19 µM); in test [3] it was not below 2 µg/mL; with Botrtyis cinerea (Bc), 2 µg/mL (≈ 3.19 µM). The figures for the IC90 (in test [4]; in the test on Rhizoctonia solani (Rs)) were more than 50 µg/mL and 10 µg/mL (≈ 15.9 µM), respectively.

For the molecule `COc1ccccc1[C@H](Cn1c(=O)n(C(C)(C)C(=O)N2CCCC2)c(=O)c2c(C)c(-n3cccn3)sc21)OC1CCOCC1` [Compound I-116], the IC90 is 10 µg/mL (≈ 16.1 µM) with Diplodia maydis (Dm); 0.4 µg/mL (≈ 0.643 µM) in test [1]; not below 50 µg/mL with Septoria tritici (St); 10 µg/mL (≈ 16.1 µM) in test [2]; not below 2 µg/mL in test [3]; 10 µg/mL (≈ 16.1 µM) with Botrtyis cinerea (Bc). The IC90 is more than 50 µg/mL in test [4] and 2 µg/mL (≈ 3.22 µM) in the test with Rhizoctonia solani (Rs).

For `COc1ccccc1[C@H](Cn1c(=O)n(C(C)(C)C(=O)N2CCCCC2)c(=O)c2c(C)c(-n3cccn3)sc21)OC1CCOCC1` [Compound I-117], the IC90 was 10 µg/mL (≈ 15.7 µM) in the test with Diplodia maydis (Dm); 0.4 µg/mL (≈ 0.629 µM) in test [1]; more than 50 µg/mL with Septoria tritici (St); 10 µg/mL (≈ 15.7 µM) in test [2]; 10 µg/mL (≈ 15.7 µM) in test [3]; 2 µg/mL (≈ 3.15 µM) in the test on Botrtyis cinerea (Bc). The IC90 in test [4] was more than 50 µg/mL; with Rhizoctonia solani (Rs) it was 10 µg/mL (≈ 15.7 µM).

As to `COc1ccccc1[C@H](Cn1c(=O)n(C(C)(C)C(=O)NC(C)C)c(=O)c2c(C)c(-n3cccn3)sc21)OC(C)C` [Compound I-118], the IC90 with Diplodia maydis (Dm) was 2 µg/mL (≈ 3.52 µM); in test [1] it was 0.4 µg/mL (≈ 0.705 µM); in the test with Septoria tritici (St), not below 50 µg/mL; in test [2], 0.4 µg/mL (≈ 0.705 µM); in test [3] it was 10 µg/mL (≈ 17.6 µM); in the test with Botrtyis cinerea (Bc), 2 µg/mL (≈ 3.52 µM). The IC90 in test [4] was more than 50 µg/mL; with Rhizoctonia solani (Rs), 50 µg/mL (≈ 88.1 µM).
